Data from patent publication US11366116B1, “Real time autonomous surveillance of pathogens” (priority 2017, dated 2022).

Tested on: Culex tarsalis mosquitoes
Test: Observation of mosquitoes feeding upon scented, spun (cotton candy) baits
Assay type: in vivo
Conditions: for Number of mosquitos observed feeding each scent: scented spun cotton candy bait
From the text: One strategy for a solid bait that we tested was a “cotton candy” or spun sugar bait (FIG. 11). The cotton candy could be pressed into the feeding well, over and on top of a dried enzyme pellet and a ball bearing for magnetic mixing. We anticipated this would allow a large surface area for mosquitoes to feed, as well as dissolve instantly upon adding a drop of rehydration buffer. Plain cotton candy made from pure sucrose turned out to be unstable upon storage for more than a few days, and we subsequently devised a way to modify the cotton candy by melting a polymer (PEG) with the sugar prior to spinning, to stabilize it against shriveling in ambient humidity. […] Based on this experiment (Table 1), we determined that both honey and plumeria could be used as attractants for sugar-feeding Culex tarsalis mosquitoes.

O=CCc1ccccc1 [Phenylacetaldehyde]
Number of mosquitos observed feeding each scent (Day 0): 0 | Number of mosquitos observed feeding each scent (Day 1): 5 | Number of mosquitos observed feeding each scent (Day 2): 1 | Number of mosquitos observed feeding each scent (Day 3): 4 | Number of mosquitos observed feeding each scent (Day 4): 3 | Number of mosquitos observed feeding each scent, Sum (Sum of Day 0 to Day 4): 13
